Test results published in US20250222120A1, “SYNTHESIS OF NOVEL SMALL MOLECULE CARM1 DEGRADERS, COMPOUNDS FORMED THEREBY, AND PHARMACEUTICAL COMPOSITIONS CONTAINING THEM” (Wisconsin Alumni Research Foundation, priority 2024, published 2025).

Columns and labels:
[1] = tested on: MCF10A cells; assay: Cell proliferation assay, MCF10A cells; assay type: cell-based, human; details: 0.5 μM
[2] = molecular target: T1, CARM1 (Homo sapiens, UniProt Q86X55); assay: CARM1 degradation by western blot in MCF10A cells; assay type: cell-based; parameters: endogenous in cells; details: normal human mammary epithelial cell model
T1 sequence (Q86X55 1-608): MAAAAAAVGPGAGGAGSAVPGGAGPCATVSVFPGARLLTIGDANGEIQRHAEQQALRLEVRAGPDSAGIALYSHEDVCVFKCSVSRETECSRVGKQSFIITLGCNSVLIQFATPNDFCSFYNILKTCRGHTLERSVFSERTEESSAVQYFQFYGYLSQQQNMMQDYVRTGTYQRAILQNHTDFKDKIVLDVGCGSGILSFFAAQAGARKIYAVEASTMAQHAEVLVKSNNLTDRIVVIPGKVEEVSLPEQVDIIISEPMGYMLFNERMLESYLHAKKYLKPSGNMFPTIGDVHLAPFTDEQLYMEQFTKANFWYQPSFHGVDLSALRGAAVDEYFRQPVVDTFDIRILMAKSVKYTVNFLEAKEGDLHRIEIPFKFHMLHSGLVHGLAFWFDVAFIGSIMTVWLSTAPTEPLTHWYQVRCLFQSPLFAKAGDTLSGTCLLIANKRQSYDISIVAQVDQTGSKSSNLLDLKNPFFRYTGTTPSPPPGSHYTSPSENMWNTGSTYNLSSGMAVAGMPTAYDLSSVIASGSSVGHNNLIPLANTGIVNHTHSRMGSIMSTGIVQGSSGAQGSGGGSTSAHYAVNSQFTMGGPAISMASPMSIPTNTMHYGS
Method: FIG. 5. […] Cell lysates were collected and the CARM1 levels were detected by western blots.
Western Blot Assay. Cells were harvested and washed with Dulbecco's phosphate-buffered saline (PBS), then lysed with 1×RIPA lysis buffer (50 mM Tris pH 7.5, 150 mM NaCl, 1% NP-40, 0.5% sodium deoxycholate, and 0.1% sodium dodecyl sulfate) supplemented with 1 mM phenylmethylsulfonyl fluoride, 10 μg/mL aprotinin, 1 μM leupeptin, and 10 μg/mL pepstatin on ice for 20 min. The supernatant was collected after spinning down at 15000 RPM at 4 degrees Celsius for 10 min. The concentration of whole lysates was quantified using a Bradford assay. 50-75 μg of cell lysates was boiled in 4× Laemmli Loading Dye and boiled at 100 degrees Celsius for 10 min. 25 μg were run in 8% SDS-PAGE gels and transferred to nitrocellulose membranes. Blots were blocked in 5% skim milk in PBST [PBS and 0.1% Tween 20] for 45 min, then incubated with primary antibodies at 4 degrees Celsius overnight. Blots were washed in PBST for 30 min, then incubated with horseradish peroxidase-linked secondary antibodies (Jackson ImmunoResearch) for 1 hr. Afterwards, blots were washed in PBST for 15-30 min, then treated with chemiluminescent ECL reagent and imaged with the ChemiDoc Imaging System (Bio-Rad) or Azure 600 (Azure Biosystems). […]

## CNCCN1CCC(c2cc(CN(C)C(=O)c3cccc(Oc4ccc(OCC(=O)N5CCC(CN6CCC(CN7CCN(CC(=O)N[C@H](C(=O)N8C[C@H](O)C[C@H]8C(=O)N[C@@H](C)c8ccc(-c9scnc9C)cc8)C(C)(C)C)CC7)CC6)CC5)cc4)c3)ccn2)CC1 [Compound 3b, (2S,4R)-1-((S)-3,3-dimethyl-2-(2-(4-((1-((1-(2-(4-(3-(methyl((2-(1-(2-(methylamino)ethyl)piperidin-4-yl)pyridin-4-yl)methyl)carbamoyl)phenoxy)phenoxy)acetyl)piperidin-4-yl)methyl)piperidin-4-yl)methyl)piperazin-1-yl)acetamido)butanoyl)-4-hydroxy-N—((S)-1-(4-(4-methylthiazol-5-yl)phenyl)ethyl)pyrrolidine-2-carboxamide]
[1]
  Cell proliferation: not to inhibit cell proliferation
[2]
  CARM1 degradation: high potency for CARM1 degradation
